Experimental findings from PMC12446565, “Perinatal Maturation of Drug Transporters and Claudin‐5 at the Blood–Brain Barrier” (CNS Neuroscience & Therapeutics, 2025) are described below.

Molecules are shown by their SMILES. Where two headings read alike, the source gives them in different places.

The conditions of series [1]: Swiss, mouse, in vivo. The procedure: (§1) Mice were then decapitated according to selected time points, with blood samples collected following decapitation. The brain was then removed from the skull. For each mouse, the brain hemispheres and two blood samples were weighed in Econo glass vials for liquid scintillation counting (Perkin Elmer). All samples were treated with a tissue solubilizer (Solvable, Perkin Elmer). Blood samples were in addition decolored with 0.2 mL of 30% hydrogen peroxide solution to avoid color quenching issues. After complete tissue sample digestion (24 h in a water bath at 45°C), the vials were cooled and mixed with Ultima‐gold XR (Perkin Elmer). The radioactivity in each vial, expressed in disintegrations per minute (dpm) for ^3H and ^14C, was counted in a Perkin Elmer Tri‐Carb counter.
For [^3H]rosuvastatin, data collection was performed at 5 and 7 min post i.p. injection. […] This avoids quantification bias caused by the formation of possible radiolabelled metabolites.
First, the vascular volume (V vasc, μL/g) was estimated for each mouse as the brain volume of distribution (V d) of [^14C]sucrose: […]

Series [2] in a line: BBB integrity: vascular volume (V vasc) of [14C]sucrose after i.p. injection. The series is classed as in vivo, Swiss mice. To be noted: for Kp at 5 min: Swiss, mouse, brain/blood, ip, 0.31 MBq/kg, 5 min post i.p. injection. On the procedure: as §1
First, the vascular volume (V vasc, μL/g) was estimated for each mouse as the brain volume of distribution (V d) of [^14C]sucrose:
[^14C]sucrose V d was calculated as the ratio of midbrain to blood carbon‐14 associated radioactivity (dpm/g) measured at 5 min post i.p. injection. Vvasc=Vdsucrose=Xsucrose,brain/Csucrose,blood
Where X sucrose,brain (dpm/g), is the calculated amount of [^14C]sucrose from the brain and C sucrose,blood (dpm/μL) its blood concentration. The data for any animal whose V vasc was an aberrant value was excluded from the study.
The vascular volume based [^14C]sucrose calculation was used as the outcome parameter for BBB integrity. Higher levels in V vasc indicate leakage of [^14C]sucrose into the brain parenchyma because of BBB leakage.

On to `CC(C)c1nc(N(C)S(C)(=O)=O)nc(-c2ccc(F)cc2)c1/C=C/[C@@H](O)C[C@@H](O)CC(=O)O` [3H-Rosuvastatin, rosuvastatin], for which the “decrease of cerebral (brain) transport at P30 compared to P15” value in series [1] worked out at 6.8 fold.

As to `OC[C@H]1O[C@@](CO)(O[C@H]2O[C@H](CO)[C@@H](O)[C@H](O)[C@H]2O)[C@@H](O)[C@@H]1O` [14C-Sucrose, sucrose], the Kp at 5 min came out at 0.0276 in series [2] (mice at P5, brain/blood ratio, read-out: Vv, Mean); 0.0235 in series [2] (mice at P5, read-out: Vv, Median); 0.0272 in series [2] (mice at P15, brain/blood ratio, read-out: Vv, Mean); 0.0256 in series [2] (mice at P15, read-out: Vv, Median); 0.0279 in series [2] (mice at P30, brain/blood ratio, read-out: Vv, Mean); 0.0292 in series [2] (mice at P30, read-out: Vv, Median). Also, the “V vasc, comparison between ages” value in series [2] (mice at P5, P15 and P30) was “did not differ between P5, P15, and P30”.
